The values below come from patent US20250340552A1, “COMPOUNDS, COMPOSITIONS AND METHODS OF TREATING DISORDERS” (HOTSPOT THERAPEUTICS, INC., priority 2022, published 2025).

The term DC50 denotes the concentration giving 50% degradation. A high value points to degradation only at high concentration. Usually Dmax stands for the largest share of the target that was removed.

Like-named read-outs stand apart in the source and are kept apart here.

This test has as its target T1, Cbl-B (Homo sapiens, UniProt Q13191).
T1 construct: MSD-Based Assay for Degradation of Cbl-B in THP-1 Cells; endogenous in cells; host or cells: THP-1 (title) / Jurkat (protocol text)
Kind of test: MSD-based assay for degradation of Cbl-B in THP-1 cells. In kind it is cell-based. In short, it runs like this:
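THP-1 cells were treated with compound for 24 h at 37 °C. Cbl-B in lysates was quantified by MSD sandwich immunoassay, with anti-Cbl-B capture antibody at 1 ug/mL and SULFO-TAG anti-rabbit detection. Maximal degradation (Dmax) was binned as A >70%, B 50–70%, C 30–50%, D <30%.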

The mark [1] stands for this setting: Cbl-B degradation, Jurkat cells seeded (heading: THP-1 cells), 24 hours incubation, MSD readout.
Where [2] appears, read: Cbl-B degradation, Jurkat cells seeded (heading: THP-1 cells), 24 hours incubation, MSD readout, read-out: Dmax.

T1 sequence (Q13191 whole entry): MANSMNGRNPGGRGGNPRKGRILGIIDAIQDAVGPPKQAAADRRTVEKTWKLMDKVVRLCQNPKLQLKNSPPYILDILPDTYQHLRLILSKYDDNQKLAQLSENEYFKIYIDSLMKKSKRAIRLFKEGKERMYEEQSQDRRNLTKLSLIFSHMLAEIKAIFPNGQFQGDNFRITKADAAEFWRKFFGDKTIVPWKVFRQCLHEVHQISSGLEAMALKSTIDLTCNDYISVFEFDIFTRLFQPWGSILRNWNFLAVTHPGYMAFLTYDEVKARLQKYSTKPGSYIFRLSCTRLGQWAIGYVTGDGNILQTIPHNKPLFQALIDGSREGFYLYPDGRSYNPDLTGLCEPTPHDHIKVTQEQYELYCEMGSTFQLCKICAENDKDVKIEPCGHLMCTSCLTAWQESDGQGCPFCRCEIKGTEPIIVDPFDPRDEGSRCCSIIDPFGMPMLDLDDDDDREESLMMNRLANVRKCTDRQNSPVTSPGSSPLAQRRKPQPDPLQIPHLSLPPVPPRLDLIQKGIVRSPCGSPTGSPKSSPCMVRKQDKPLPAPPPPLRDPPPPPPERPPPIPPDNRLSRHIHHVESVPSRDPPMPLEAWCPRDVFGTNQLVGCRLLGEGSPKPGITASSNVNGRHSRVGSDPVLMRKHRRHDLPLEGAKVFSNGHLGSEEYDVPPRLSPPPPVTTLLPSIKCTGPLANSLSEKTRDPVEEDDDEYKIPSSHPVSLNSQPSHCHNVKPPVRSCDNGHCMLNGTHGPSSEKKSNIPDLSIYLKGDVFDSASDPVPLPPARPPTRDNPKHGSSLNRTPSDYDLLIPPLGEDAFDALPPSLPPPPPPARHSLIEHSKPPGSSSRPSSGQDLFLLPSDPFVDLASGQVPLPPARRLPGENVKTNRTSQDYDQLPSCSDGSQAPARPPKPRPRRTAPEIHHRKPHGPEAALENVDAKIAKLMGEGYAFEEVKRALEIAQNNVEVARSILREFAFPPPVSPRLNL

Under setting [1], `Cn1cnnc1[C@@H](c1cccc(-n2cc3c(C(F)(F)F)cc(CN4CCC(COCc5ccc(CN6CCN(c7ccc8c(c7)CN([C@@H]7CCC(=O)NC7=O)C8=O)CC6)cc5)CC4)cn3c2=O)c1)C1CCC1` [Compound 101] gave a DC50 of 30 to 300 nM. Further, the Dmax (THP-1) lay in the range of 50 to 70%.

As to `Cn1cnnc1[C@@H](c1cccc(-n2cc3c(C(F)(F)F)cc(CN4CCC(OCCOCc5ccc(CC6CCN(c7ccc8c(c7)CN([C@H]7CCC(=O)NC7=O)C8=O)CC6)cc5)CC4)cn3c2=O)c1)C1CCC1` (single isomer, unassigned) [Compound 174], the half-maximal degradation concentration (DC50) under setting [1] is < 30 nM. Further, the Dmax under setting [2] is > 70%.

As for `Cn1cnnc1CC1(c2cccc(-n3cc4c(C(F)(F)F)cc(CN5CCC[C@@H](OCc6ccc(CN7CCN(c8ccc9c(c8)CN(C8CCC(=O)NC8=O)C9=O)CC7)cc6)C5)cn4c3=O)c2)COC1` (stereo partly drawn) [Compound 96], the DC50 under setting [1] fell in the range of 30 to 300 nM. For the same molecule, the Dmax under setting [2] fell in the range of 30 to 50%.

With `Cn1cnnc1CC1(c2cccc(-n3cc4c(C(F)(F)F)cc(CN5CCC[C@@H](OC6CCN(C(=O)c7ccc(N8CCN(c9ccc%10c(c9)CN([C@@H]9CCC(=O)NC9=O)C%10=O)CC8)cc7)CC6)C5)cn4c3=O)c2)COC1` (single isomer, unassigned) [Compound 263], the half-maximal degradation concentration (DC50) under setting [1] was < 30 nM. Moreover, the maximal degradation (Dmax) under setting [2] was > 70%.

Under setting [1], `Cn1cnnc1[C@@H](c1cccc(-n2cc3c(C(F)(F)F)cc(CN4CCC(OCCN5CCC(CN6CCN(c7ccc8c(c7)CN([C@@H]7CCC(=O)NC7=O)C8=O)CC6)CC5)CC4)cn3c2=O)c1)C1COC1` [Compound 57] came in with a DC50 of 1000 to 10000 nM. In addition, the maximal degradation (Dmax) under setting [2] lay within 50 to 70%.

The molecule `Cn1cnnc1[C@@H](c1cccc(-n2cc3c(C(F)(F)F)cc(CN4CCN(c5ccc(C(=O)N6CCC(C7CCN(c8ccc9c(c8)CN([C@@H]8CCC(=O)NC8=O)C9=O)CC7)CC6)cc5)CC4)cn3c2=O)c1)C1CCC1` (single isomer, unassigned) [Compound 209] displayed a DC50 under setting [1] of 1000 to 10000 nM. Besides, the maximal degradation (Dmax) under setting [2] was < 30%.
